± gives the standard deviation of the averaged measurements.

85 sequences from the supplement of paper PMC4314810 can be followed below.

In the data set the test system is MCF7. Kind of data set: HRG-induced Akt activation (dPAkt = log2 pAkt/Akt HRG-stimulated minus log2 pAkt/Akt basal) (log2 ratio difference); higher = stronger HRG-induced Akt(T308) phosphorylation. The note with it: miRNA mimic concentration 10 nM; time after transfection 72 h; heregulin 10 ng/ml; stimulation time 1 h. Summed up:
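MCF7 cells were plated […] in 96-well plates and transfected in two biological replicates with a library of 879 miRNA mimics (10 nM final) using Lipofectamine RNAiMax; 72 h later they were stimulated for 1 h with 10 ng/ml heregulin-beta1 or left unstimulated. After fixation in 4% PFA, phospho-Akt(T308) and total Akt were measured by In-Cell Western on an Odyssey, with signals corrected for column-wise fixation decay. Heregulin-induced Akt activation is the stimulated minus unstimulated value of the log ratio of phospho-Akt to total Akt, averaged over replicates. That log ratio is log2(pAkt/Akt).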

Turning to UGUAAACAUCCUACACUCUCAGC, the “HRG-induced Akt activation (log2)” value was 0.867 ± 0.099. On to UGUAAACAUCCUCGACUGGAAG, for which the “HRG-induced Akt activation (log2)” value was found to be 1.22 ± 0.25. Regarding UGUAAACAUCCUUGACUGGAAG, the “HRG-induced Akt activation (log2)” value is 1.12 ± 0.049.

For the sequence UGUAACAGCAACUCCAUGUGGA, the “HRG-induced Akt activation (log2)” value was 0.984 ± 0.7. Regarding UGUAGUGUUUCCUACUUUAUGGA, the “HRG-induced Akt activation (log2)” value was 1.77 ± 0.26. The same measure for UGUCACUCGGCUCGGCCCACUAC: 1.17 ± 0.18.

For the sequence UGUCAGUUUGUCAAAUACCCCA, the “HRG-induced Akt activation (log2)” value came out at 1.28 ± 0.73.

Take UGUCUACUACUGGAGACACUGG: the “HRG-induced Akt activation (log2)” value came out at 2.12 ± 0.15. For UGUCUCUGCUGGGGUUUCU the value was 1.89 ± 0.58; for UGUCUGCCCGCAUGCCUGCCUCU, 2.32 ± 0.13; for UGUCUUACUCCCUCAGGCACAU, 1.47 ± 0.054.

Consider UGUCUUGCAGGCCGUCAUGCA, for which the “HRG-induced Akt activation (log2)” value was 1.68 ± 0.5. Regarding UGUGACAGAUUGAUAACUGAAA, the “HRG-induced Akt activation (log2)” value worked out at 1.84 ± 0.056. With UGUGACUGGUUGACCAGAGGGG, the “HRG-induced Akt activation (log2)” value was 1.6 ± 0.2.

With UGUGAGGUUGGCAUUGUUGUCU, the “HRG-induced Akt activation (log2)” value worked out at 2.02 ± 0.55. For UGUGCAAAUCCAUGCAAAACUGA the value was 0.657 ± 0.2. For UGUGCAAAUCUAUGCAAAACUGA the value was 0.8263 ± 0.0053. For UGUGCGCAGGGAGACCUCUCCC the value was 0.835 ± 0.095; for UGUGCUUGCUCGUCCCGCCCGCA, 1.82 ± 0.029; for UGUGUCACUCGAUGACCACUGU, 2.42 ± 0.089.

With UGUUCAUGUAGAUGUUUAAGC, the “HRG-induced Akt activation (log2)” value turned out to be 1.08 ± 0.15. The same measure for UGUUUUGAUAACAGUAAUGU: 1.44 ± 0.064; for UUAAGACUUGCAGUGAUGUUU: 1.25 ± 0.66; for UUAAUAUCGGACAACCAUUGU: 1.72 ± 0.21. For UUAAUGCUAAUCGUGAUAGGGGU, the “HRG-induced Akt activation (log2)” value was 0.789 ± 0.062.

For the sequence UUACAGUUGUUCAACCAGUUACU, the “HRG-induced Akt activation (log2)” value was determined as 1.44 ± 0.019. The same measure for UUAGGCCGCAGAUCUGGGUGA: 1.39 ± 0.89; for UUAGGGCCCUGGCUCCAUCUCC: 1.954 ± 0.014; for UUAUAAAGCAAUGAGACUGAUU: 1.5 ± 0.79. As for UUAUAAUACAACCUGAUAAGUG, the “HRG-induced Akt activation (log2)” value stood at 1.04 ± 0.33. For UUAUCAGAAUCUCCAGGGGUAC the value was 2.16 ± 0.2. With UUAUGGUUUGCCUGGGACUGAG, the “HRG-induced Akt activation (log2)” value was 1.74 ± 0.28. For UUAUUGCUUAAGAAUACGCGUAG the value was 1.64 ± 0.095; for UUCAACGGGUAUUUAUUGAGCA, 1.34 ± 0.24; for UUCAAGUAAUCCAGGAUAGGCU, 1.19 ± 0.24.

In the case of UUCAAGUAAUUCAGGAUAGGU, the “HRG-induced Akt activation (log2)” value was 1.06 ± 0.39. For the sequence UUCAAGUAAUUCAGGUG, the “HRG-induced Akt activation (log2)” value stood at 1.22 ± 0.15. For UUCACAAGGAGGUGUCAUUUAU the value was 1.442 ± 0.013; for UUCACAGGGAGGUGUCAU, 1.82 ± 0.08.

UUCACAGUGGCUAAGUUCCGC: the “HRG-induced Akt activation (log2)” value was found to be 1.73 ± 0.22. For UUCACAGUGGCUAAGUUCUGC the value was 1.73 ± 0.061. The same measure for UUCACAUUGUGCUACUGUCUGC: 1.59 ± 0.03. With UUCACCACCUUCUCCACCCAGC, the “HRG-induced Akt activation (log2)” value came to 1.57 ± 0.62. UUCAUUCGGCUGUCCAGAUGUA: the “HRG-induced Akt activation (log2)” value amounted to 1.48 ± 0.1. Regarding UUCAUUUGGUAUAAACCGCGAUU, the “HRG-induced Akt activation (log2)” value came to 2.42 ± 0.062. For UUCCCUUUGUCAUCCUAUGCCU the value was 0.793 ± 0.043; for UUCCCUUUGUCAUCCUUCGCCU, 1 ± 0.3; for UUCCUAUGCAUAUACUUCUUUG, 1.11 ± 0.32. For UUCUCAAGGAGGUGUCGUUUAU the value was 0.993 ± 0.67; for UUCUCCAAAAGAAAGCACUUUCUG, 2.57 ± 0.12; for UUCUCCAAAAGGGAGCACUUUC, 2.3 ± 0.097. For UUCUCGAGGAAAGAAGCACUUUC the value was 1.61 ± 0.16; for UUCUGGAAUUCUGUGUGAGGGA, 1.78 ± 0.2. For UUGAAAGGCUAUUUCUUGGUC, the “HRG-induced Akt activation (log2)” value stood at 2.39 ± 0.036.

As to UUGAGAAGGAGGCUGCUG, the “HRG-induced Akt activation (log2)” value is 1.18 ± 0.17. For UUGAGAAUGAUGAAUCAUUAGG the value was 1.82 ± 0.5. For UUGCAGCUGCCUGGGAGUGACUUC, the “HRG-induced Akt activation (log2)” value amounted to 0.96 ± 0.045. As to UUGCAUAGUCACAAAAGUGAUC, the “HRG-induced Akt activation (log2)” value came to 1.36 ± 0.096. Regarding UUGCAUAUGUAGGAUGUCCCAU, the “HRG-induced Akt activation (log2)” value worked out at 1.32 ± 0.079.

As for UUGCUCACUGUUCUUCCCUAG, the “HRG-induced Akt activation (log2)” value is 0.86933 ± 0.00015.

Turning to UUGGCCACAAUGGGUUAGAAC, the “HRG-induced Akt activation (log2)” value was determined as 1.02 ± 0.1. For UUGGGACAUACUUAUGCUAAA the value was 1.28 ± 0.2. For UUGGGAUCAUUUUGCAUCCAUA the value was 1.13 ± 0.3; for UUGGGGAAACGGCCGCUGAGUG, 2.08 ± 0.097; for UUGUACAUGGUAGGCUUUCAUU, 1.7 ± 0.31. Regarding UUGUGCUUGAUCUAACCAUGU, the “HRG-induced Akt activation (log2)” value is 1.1 ± 0.016. The same measure for UUGUGUCAAUAUGCGAUGAUGU: 1.768 ± 0.00038; for UUUAACAUGGGGGUACCUGCUG: 1.59 ± 0.42. Take UUUAGAGACGGGGUCUUGCUCU: the “HRG-induced Akt activation (log2)” value came out at 1.54 ± 0.51. For UUUAGGAUAAGCUUGACUUUUG the value was 1.37 ± 0.39; for UUUCAAGCCAGGGGGCGUUUUUC, 0.989 ± 0.21; for UUUCCAUAGGUGAUGAGUCAC, 1.09 ± 0.68. As for UUUCCGGCUCGCGUGGGUGUGU, the “HRG-induced Akt activation (log2)” value is 1.627 ± 0.015.

As for UUUGAGGCUACAGUGAGAUGUG, the “HRG-induced Akt activation (log2)” value turned out to be 2.06 ± 0.034. For UUUGGCAAUGGUAGAACUCACACU the value was 1.75 ± 0.06; for UUUGGCACUAGCACAUUUUUGCU, 1.535 ± 0.007.

Regarding UUUGGUCCCCUUCAACCAGCUA, the “HRG-induced Akt activation (log2)” value came out at 1.61 ± 0.066. The same measure for UUUGGUCCCCUUCAACCAGCUG: 1.54 ± 0.13. UUUGUGACCUGGUCCACUAACC: the “HRG-induced Akt activation (log2)” value turned out to be 1.16 ± 0.88. For UUUGUUCGUUCGGCUCGCGUGA the value was 1.23 ± 0.27; for UUUUCAACUCUAAUGGGAGAGA, 1.48 ± 0.1; for UUUUGCAAUAUGUUCCUGAAUA, 1.01 ± 0.24. As to UUUUGCACCUUUUGGAGUGAA, the “HRG-induced Akt activation (log2)” value came out at 1.55 ± 0.13. For the sequence UUUUGCGAUGUGUUCCUAAUAU, the “HRG-induced Akt activation (log2)” value is 1.67 ± 0.12. Regarding UUUUUCAUUAUUGCUCCUGACC, the “HRG-induced Akt activation (log2)” value came to 1.62 ± 0.14.
